Literature values as cited in publication PMC12128972, “TYRA-300, an FGFR3-selective inhibitor, promotes bone growth in two FGFR3-driven models of chondrodysplasia” (JCI Insight, 2025).

What was measured:
[1] = test system: Fgfr3^Y367C/+ mouse model, which mimics the phenotype of ACH; set-up: method as in PMID 27064282, PMID 23200862; details: infigratinib 2 mg/kg, starting at 7 days of age for 10 days; cited from earlier work
[2] = test system: growth plate chondrocytes of Fgfr3^Y367C/+ mice; details: previous studies; cited from earlier work
[3] = test system: Fgfr3^G374R mouse model of ACH; details: treatment initiated 1 day after birth; cited from earlier work
children with ACH = test system: children with ACH; set-up: method as in earlier work; details: children with ACH aged 5-12 years, once daily s.c.; 95% CI 1.22-1.97; cited from earlier work

Compound | bone growth compared with vosoritide (800 μg/kg) [1] | type X collagen staining in the HZCs [2] | premature fusion of the intersphenoidal synchondrosis [3] | increase from baseline of average linear growth velocity greater than placebo (children with ACH) [cm/year]
CCN1CCN(c2ccc(Nc3cc(N(C)C(=O)Nc4c(Cl)c(OC)cc(OC)c4Cl)ncn3)cc2)CC1 [infigratinib] | more bone growth than vosoritide | partial restoration | did not rescue premature fusion | 
vosoritide: C-natriuretic peptide (CNP) analog that is a once daily subcutaneous injection (PGQEHPNARKYKGANKKGLSKGCFGLKLDRIGSMSGLGC; chains of the INN, looked up) |  | partial restoration |  | 1.57
